Source: patent US10865238B1, “Complement factor H antibodies” (Duke University, priority 2017, dated 2020)

Experiments:
H460 cells = assay: Calreticulin translocation to plasma membrane, H460; format: cell-based, human; settings: H460, NHS, compared to negative controls
Method: (§1) H460 or A549 cells were treated for 2.5 hr with 1, medium; 2, NHS and CFH mAb (200 μg/ml); 3, NHS and IgG (200 μg/ml); or 4, NHS and Doxorubicin (25 μM).
(§2) In order to see if lung tumor cells undergoing CFH mAb-induced CDC send an ICD signal, human lung tumor cell lines (H460 and A549) were incubated in medium containing complement from the addition of NHS, and treated with CFH mAb, control antibody, or the known ICD inducer doxorubicin (Kepp et al. Oncoimmunology 2014; 3:e955691; Krysko et al. Nat Rev Cancer 2012; 12:860-75.). […] Total calreticulin in whole cell lysates was the same under all conditions.

A549 cells = assay: Calreticulin translocation to plasma membrane, A549; format: cell-based, human; settings: A549, NHS, compared to negative controls
Method: as §1, §2

[1] = target: T1, reduced Complement Factor H (CFH) (human, UniProt P08603 19-1231, disulfide bonds reduced with TCEP); assay: western blot (immunoblot) on native and TCEP-reduced CFH
T1 construct: also called reduced CFH; CFH treated with TCEP
T1 sequence (P08603 19-1231 limits assumed): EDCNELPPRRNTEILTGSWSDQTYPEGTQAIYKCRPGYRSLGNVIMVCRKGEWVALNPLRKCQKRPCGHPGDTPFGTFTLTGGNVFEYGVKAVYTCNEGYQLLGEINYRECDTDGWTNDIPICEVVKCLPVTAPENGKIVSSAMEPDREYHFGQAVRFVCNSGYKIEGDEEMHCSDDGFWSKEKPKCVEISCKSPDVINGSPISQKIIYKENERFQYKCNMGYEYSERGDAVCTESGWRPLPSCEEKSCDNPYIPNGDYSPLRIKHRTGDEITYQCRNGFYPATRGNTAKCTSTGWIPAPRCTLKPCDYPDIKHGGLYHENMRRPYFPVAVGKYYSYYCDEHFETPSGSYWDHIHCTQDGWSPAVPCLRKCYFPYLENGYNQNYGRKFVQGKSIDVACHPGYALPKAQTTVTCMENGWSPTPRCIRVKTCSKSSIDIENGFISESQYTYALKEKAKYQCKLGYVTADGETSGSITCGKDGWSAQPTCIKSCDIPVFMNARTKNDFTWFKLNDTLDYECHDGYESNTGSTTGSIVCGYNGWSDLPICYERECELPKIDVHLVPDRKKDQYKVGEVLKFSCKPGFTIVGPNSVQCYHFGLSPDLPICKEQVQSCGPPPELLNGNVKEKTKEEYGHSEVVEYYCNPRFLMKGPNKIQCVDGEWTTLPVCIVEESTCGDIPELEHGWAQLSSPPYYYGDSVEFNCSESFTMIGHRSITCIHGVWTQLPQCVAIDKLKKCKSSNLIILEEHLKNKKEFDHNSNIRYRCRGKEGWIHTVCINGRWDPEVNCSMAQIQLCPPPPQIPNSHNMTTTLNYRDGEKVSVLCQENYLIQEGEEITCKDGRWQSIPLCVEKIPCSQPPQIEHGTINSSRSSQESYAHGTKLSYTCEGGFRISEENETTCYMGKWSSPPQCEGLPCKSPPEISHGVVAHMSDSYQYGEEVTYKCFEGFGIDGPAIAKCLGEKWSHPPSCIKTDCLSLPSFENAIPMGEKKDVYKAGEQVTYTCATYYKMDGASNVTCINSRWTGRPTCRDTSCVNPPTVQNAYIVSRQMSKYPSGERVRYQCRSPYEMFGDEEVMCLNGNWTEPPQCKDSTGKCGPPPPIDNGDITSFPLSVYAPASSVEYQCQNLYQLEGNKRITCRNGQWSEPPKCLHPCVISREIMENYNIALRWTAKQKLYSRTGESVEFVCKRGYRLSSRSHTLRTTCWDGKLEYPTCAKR
Method: Equimolar amounts of CFH and SCR19-20 proteins (~150 kDa and ~15 kDa, respectively) were treated with Tris-HCl (oxidized) or TCEP (reduced) prior to electrophoresis. The proteins were transferred to PVDF, and the membranes were placed into a "Surf-Blot" apparatus for immunoblot analysis. […] Binding was visualized with an antihuman IgG-HRP conjugate and chemiluminescent substrate, exposing the entire blot to one piece of film.

| binding result [1] | Molecule | plasma membrane calreticulin (H460 cells) | plasma membrane calreticulin (A549 cells) |
| --- | --- | --- | --- |
| – | COc1cccc2c1C(=O)c1c(O)c3c(c(O)c1C2=O)C[C@@](O)(C(=O)CO)C[C@@H]3O[C@H]1C[C@H](N)[C@H](O)[C@H](C)O1 [doxorubicin, reference compound] | increases in plasma membrane calreticulin | increases in plasma membrane calreticulin |
| binds | Ab7955 (antibody, V domains shown, Recombinant human mAb; also called CFH mAb 7955) VH: LVESGGGVVRPGRSLRLSCVASGFTFNAYGMHWVRQGPGKGLEWLAVISYEGKTVYYADSVKDRFTISRDNSRNTVSLHLNNLRGEDTAVYYCAKGSASAAVLQHWGQGTLVSVTS VL: MTQSPGSLAVSLGSRATINCKSSRSLLYRSNNKNYLAWYQQKPGQSPRLLIYWASSRESGVPDRFSGGGSGTSFTLTISSLQAEDVAVYYCQQYFNPPWTFGQGTKVEIK | – | – |
